Like-named read-outs stand apart in the source and are kept apart here. Bridge positions count the residues as written; N and C are the ends. Square brackets hold non-standard residues; d marks the D form. Peptide text beside a SMILES is read from it. Hyp = O=C(O)[C@@H]1C[C@@H](O)CN1; Cit = NC(=O)NCCC[C@H](N)C(=O)O
Key:
[1] = Physical stability of peptide analogues (Thioflavin T fibrillation); format: physicochemical; settings: maximum ThT signal normalized between hAMY maximum and buffer background; 40° C., shaking, four days; pH 7 per table title
Procedure, shortened: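 ThT fluorescence (450 nm excitation, 480 nm emission; 4 μM dye) was read every 10 min over four days at 40° C under 700 rpm shaking stress, after 1 h in pH 4 acetate or pH 7 phosphate (50 mM). Peak smoothed signal expressed as percent, scaled between buffer background and hAMY maximum.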

[2] = target: hAM1 receptor (Homo sapiens, UniProt O60895+Q16602); assay: cAMP assay for in vitro receptor activation, hAM1-R; format: cell-based
hAM1 receptor, sequence (Q16602 23-461): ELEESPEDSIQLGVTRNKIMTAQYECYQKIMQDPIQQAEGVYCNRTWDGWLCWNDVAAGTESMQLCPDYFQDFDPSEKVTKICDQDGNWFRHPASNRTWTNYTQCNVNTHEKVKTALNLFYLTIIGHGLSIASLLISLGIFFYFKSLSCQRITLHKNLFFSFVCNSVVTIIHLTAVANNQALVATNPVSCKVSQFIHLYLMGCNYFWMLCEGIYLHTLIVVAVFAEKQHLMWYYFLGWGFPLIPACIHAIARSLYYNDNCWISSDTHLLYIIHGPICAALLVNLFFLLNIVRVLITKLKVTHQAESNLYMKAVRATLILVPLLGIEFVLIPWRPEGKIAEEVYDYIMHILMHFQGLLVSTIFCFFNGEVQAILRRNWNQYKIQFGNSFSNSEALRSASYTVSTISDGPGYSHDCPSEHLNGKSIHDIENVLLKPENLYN
hAM1 receptor, sequence (O60895 43-175 partner): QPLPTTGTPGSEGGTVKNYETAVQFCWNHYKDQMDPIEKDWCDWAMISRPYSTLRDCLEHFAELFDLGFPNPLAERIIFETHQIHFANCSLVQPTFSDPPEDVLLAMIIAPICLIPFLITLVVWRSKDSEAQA
Procedure, shortened: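 cAMP accumulation was measured in a monoclonal cell line stably overexpressing the hAM1 receptor. Frozen aliquots were thawed and plated at 8000 cells/well in DPBS containing 0.05% casein and 0.5 mM IBMX.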

[3] = cAMP assay, hAM1 receptor, read-out: hAM1R EC50

| Compound | Max ThT signal (%) [1] [%] | EC50 [2] [µM] | EC50 [2, 3] [µM] |
| --- | --- | --- | --- |
| CC[C@H](C)[C@H](NC(=O)[C@H](CCC(N)=O)NC(=O)[C@H](Cc1c[nH]cn1)NC(=O)[C@H](C)NC(=O)[C@H](CC(C)C)NC(=O)[C@H](CCCNC(=N)N)NC(=O)[C@H](CCC(N)=O)NC(=O)[C@@H](NC(=O)[C@@H](NC(=O)[C@@H]1CSSC[C@H](NC(=O)CN)C(=O)N[C@@H](CCCNC(=N)N)C(=O)N[C@@H]([C@@H](C)O)C(=O)NCC(=O)N[C@@H]([C@@H](C)O)C(=O)N1)[C@@H](C)O)C(C)C)C(=O)N[C@@H](Cc1ccc(O)cc1)C(=O)N[C@@H](CCC(N)=O)C(=O)N[C@@H](Cc1ccccc1)C(=O)N[C@H](C(=O)N[C@@H](CC(=O)O)C(=O)N[C@@H](CCCCN)C(=O)N[C@@H](Cc1ccccc1)C(=O)N[C@@H](CCCCN)C(=O)N[C@@H](CC(=O)O)C(=O)N[C@@H](CC(N)=O)C(=O)N[C@H](C(=O)N[C@@H](C)C(=O)N1CCC[C@H]1C(=O)N[C@@H](CCCNC(=N)N)C(=O)N[C@@H](CO)C(=O)N[C@@H](CCCCN)C(=O)N[C@H](C(=O)N[C@@H](CO)C(=O)N1CCC[C@H]1C(=O)N[C@@H](CCC(N)=O)C(=O)N1CCC[C@H]1C(=O)N1C[C@H](O)C[C@H]1C(N)=O)[C@@H](C)CC)C(C)C)[C@@H](C)O [compound 203] (H-GCRTGTCTVQRLAHQIYQFTDKFKDNVAPRSKISPQP[Hyp]-NH2; disulfide 2-7; N-terminus assumed) | 1.200 | > 5 | – |
| CC[C@H](C)[C@H](NC(=O)[C@H](CC(N)=O)NC(=O)[C@H](CO)NC(=O)[C@H](CCCNC(=N)N)NC(=O)[C@@H]1CCCN1C(=O)[C@H](C)NC(=O)[C@@H](NC(=O)[C@H](CC(N)=O)NC(=O)[C@H](CC(=O)O)NC(=O)[C@H](CCCCN)NC(=O)[C@H](CC(=O)O)NC(=O)[C@H](CCCCN)NC(=O)[C@H](CC(=O)O)NC(=O)[C@@H](NC(=O)[C@H](Cc1ccccc1)NC(=O)[C@H](CCC(N)=O)NC(=O)[C@H](Cc1ccc(O)cc1)NC(=O)[C@@H](NC(=O)[C@H](CCC(N)=O)NC(=O)[C@H](Cc1c[nH]cn1)NC(=O)[C@H](C)NC(=O)[C@H](CC(C)C)NC(=O)[C@H](Cc1c[nH]c2ccccc12)NC(=O)[C@H](CCC(N)=O)NC(=O)[C@@H](NC(=O)[C@@H](NC(=O)[C@@H]1CSSC[C@H](NC(=O)CN)C(=O)N[C@@H](CCCNC(=N)N)C(=O)N[C@@H]([C@@H](C)O)C(=O)NCC(=O)N[C@@H]([C@@H](C)O)C(=O)N1)[C@@H](C)O)C(C)C)[C@@H](C)CC)[C@@H](C)O)C(C)C)C(=O)NCC(=O)N1CCC[C@H]1C(=O)N[C@@H](CCC(N)=O)C(=O)NCC(=O)N1C[C@H](O)C[C@H]1C(N)=O [compound 359] (H-GCRTGTCTVQWLAHQIYQFTDKDKDNVAPRSNIGPQG[Hyp]-NH2; disulfide 2-7; N-terminus assumed) | 20.350 | – | > 5 |
| CC[C@H](C)[C@H](NC(=O)[C@H](CC(N)=O)NC(=O)[C@H](CO)NC(=O)[C@H](CCCNC(=N)N)NC(=O)[C@@H]1CCCN1C(=O)[C@H](C)NC(=O)[C@@H](NC(=O)[C@H](CC(N)=O)NC(=O)[C@H](CC(=O)O)NC(=O)[C@H](CCCCN)NC(=O)[C@H](CC(=O)O)NC(=O)[C@H](CCCCN)NC(=O)[C@H](CC(=O)O)NC(=O)[C@@H](NC(=O)[C@H](Cc1ccccc1)NC(=O)[C@H](CCC(N)=O)NC(=O)[C@H](Cc1ccc(O)cc1)NC(=O)[C@@H](NC(=O)[C@H](CCC(N)=O)NC(=O)[C@H](Cc1c[nH]cn1)NC(=O)[C@H](C)NC(=O)[C@H](CC(C)C)NC(=O)[C@H](CCCNC(N)=O)NC(=O)[C@H](CCC(N)=O)NC(=O)[C@@H](NC(=O)[C@@H](NC(=O)[C@@H]1CSSC[C@H](NC(=O)CN)C(=O)N[C@@H](CCCNC(=N)N)C(=O)N[C@@H]([C@@H](C)O)C(=O)NCC(=O)N[C@@H]([C@@H](C)O)C(=O)N1)[C@@H](C)O)C(C)C)[C@@H](C)CC)[C@@H](C)O)C(C)C)C(=O)NCC(=O)N1CCC[C@H]1C(=O)N[C@@H](CCC(N)=O)C(=O)NCC(=O)N1C[C@H](O)C[C@H]1C(N)=O [compound 303] (H-GCRTGTCTVQ[Cit]LAHQIYQFTDKDKDNVAPRSNIGPQG[Hyp]-NH2; disulfide 2-7) | 18.150 | – | > 5 |
| CC[C@H](C)[C@H](NC(=O)[C@H](CCC(N)=O)NC(=O)[C@H](Cc1c[nH]cn1)NC(=O)[C@H](C)NC(=O)[C@H](CC(C)C)NC(=O)[C@H](CCCNC(N)=O)NC(=O)[C@H](CCC(N)=O)NC(=O)[C@@H](NC(=O)[C@@H](NC(=O)[C@@H]1CSSC[C@H](NC(=O)CN)C(=O)N[C@@H](CCCNC(=N)N)C(=O)N[C@@H](Cc2ccccc2)C(=O)NCC(=O)N[C@@H]([C@@H](C)O)C(=O)N1)[C@@H](C)O)C(C)C)C(=O)N[C@@H](Cc1ccc(O)cc1)C(=O)N[C@@H](CCC(N)=O)C(=O)N[C@@H](Cc1ccccc1)C(=O)N[C@H](C(=O)N[C@@H](CC(=O)O)C(=O)N[C@@H](CCCCN)C(=O)N[C@@H](CC(=O)O)C(=O)N[C@@H](CCCCN)C(=O)N[C@@H](CC(=O)O)C(=O)N[C@@H](CC(N)=O)C(=O)N[C@H](C(=O)N[C@@H](C)C(=O)N1CCC[C@H]1C(=O)N[C@@H](CCCNC(=N)N)C(=O)N[C@H](C(=O)N[C@@H](CCCCN)C(=O)N[C@H](C(=O)N[C@@H](CO)C(=O)N1CCC[C@H]1C(=O)N[C@@H](CCC(N)=O)C(=O)NCC(=O)N1C[C@H](O)C[C@H]1C(N)=O)C(C)C)[C@@H](C)O)C(C)C)[C@@H](C)O [compound 287] (H-GCRFGTCTVQ[Cit]LAHQIYQFTDKDKDNVAPRTKVSPQG[Hyp]-NH2; disulfide 2-7; N-terminus assumed) | 10.650 | – | > 5 |
| CC[C@H](C)[C@H](NC(=O)[C@H](CCC(N)=O)NC(=O)[C@H](Cc1c[nH]cn1)NC(=O)[C@H](C)NC(=O)[C@H](CC(C)C)NC(=O)[C@H](CCCNC(=N)N)NC(=O)[C@H](CCC(N)=O)NC(=O)[C@@H](NC(=O)[C@@H](NC(=O)[C@@H]1CSSC[C@H](NC(=O)CN)C(=O)N[C@@H](CCCNC(=N)N)C(=O)N[C@@H](CCSC)C(=O)NCC(=O)N[C@@H]([C@@H](C)O)C(=O)N1)[C@@H](C)O)C(C)C)C(=O)N[C@@H](Cc1ccc(O)cc1)C(=O)N[C@@H](CCC(N)=O)C(=O)N[C@@H](Cc1ccccc1)C(=O)N[C@H](C(=O)N[C@@H](CC(=O)O)C(=O)N[C@@H](CCCCN)C(=O)N[C@@H](Cc1ccccc1)C(=O)N[C@@H](CCCCN)C(=O)N[C@@H](CC(=O)O)C(=O)N[C@@H](CC(N)=O)C(=O)N[C@H](C(=O)N[C@@H](C)C(=O)N1CCC[C@H]1C(=O)N[C@@H](CCCNC(=N)N)C(=O)N[C@@H](CO)C(=O)N[C@@H](CCCCN)C(=O)N[C@H](C(=O)N[C@@H](CO)C(=O)N1CCC[C@H]1C(=O)N[C@@H](CCC(N)=O)C(=O)N[C@H](C(=O)N1C[C@H](O)C[C@H]1C(N)=O)[C@@H](C)O)[C@@H](C)CC)C(C)C)[C@@H](C)O [compound 173] (H-GCRMGTCTVQRLAHQIYQFTDKFKDNVAPRSKISPQT[Hyp]-NH2; disulfide 2-7; N-terminus assumed) | 4.400 | – | > 5 |
| CC[C@H](C)[C@H](NC(=O)[C@H](CCCCN)NC(=O)[C@@H](NC(=O)[C@H](CCCNC(=N)N)NC(=O)[C@@H]1CCCN1C(=O)[C@H](C)NC(=O)[C@@H](NC(=O)[C@H](CC(N)=O)NC(=O)[C@H](CC(=O)O)NC(=O)[C@H](CCCCN)NC(=O)[C@H](CC(=O)O)NC(=O)[C@H](CCCCN)NC(=O)[C@H](CC(=O)O)NC(=O)[C@@H](NC(=O)[C@H](Cc1ccccc1)NC(=O)[C@H](CCC(N)=O)NC(=O)[C@H](Cc1ccc(O)cc1)NC(=O)[C@@H](NC(=O)[C@H](CCC(N)=O)NC(=O)[C@H](Cc1c[nH]cn1)NC(=O)[C@H](C)NC(=O)[C@H](CC(C)C)NC(=O)[C@H](CCCNC(N)=O)NC(=O)[C@H](CCC(N)=O)NC(=O)[C@@H](NC(=O)[C@@H](NC(=O)[C@@H]1CSSC[C@H](NC(=O)CN)C(=O)N[C@@H](CCCNC(=N)N)C(=O)N[C@@H]([C@@H](C)O)C(=O)NCC(=O)N[C@@H]([C@@H](C)O)C(=O)N1)[C@@H](C)O)C(C)C)[C@@H](C)CC)[C@@H](C)O)C(C)C)[C@@H](C)O)C(=O)NCC(=O)N1CCC[C@H]1C(=O)N[C@@H](CCC(N)=O)C(=O)NCC(=O)N1C[C@H](O)C[C@H]1C(N)=O [compound 301] (H-GCRTGTCTVQ[Cit]LAHQIYQFTDKDKDNVAPRTKIGPQG[Hyp]-NH2; disulfide 2-7; N-terminus assumed) | 16.950 | – | > 5 |
| CC[C@H](C)[C@H](NC(=O)[C@H](CCC(N)=O)NC(=O)[C@H](Cc1c[nH]cn1)NC(=O)[C@H](C)NC(=O)[C@H](CC(C)C)NC(=O)[C@H](CCCNC(N)=O)NC(=O)[C@H](CCC(N)=O)NC(=O)[C@@H](NC(=O)[C@@H](NC(=O)[C@@H]1CSSC[C@H](NC(=O)CN)C(=O)N[C@@H](CCCNC(=N)N)C(=O)N[C@@H]([C@@H](C)O)C(=O)NCC(=O)N[C@@H]([C@@H](C)O)C(=O)N1)[C@@H](C)O)C(C)C)C(=O)N[C@@H](Cc1ccc(O)cc1)C(=O)N[C@@H](CCC(N)=O)C(=O)N[C@@H](Cc1ccccc1)C(=O)N[C@H](C(=O)N[C@@H](CC(=O)O)C(=O)N[C@@H](CCCCN)C(=O)N[C@@H](CC(=O)O)C(=O)N[C@@H](CCCCN)C(=O)N[C@@H](CC(=O)O)C(=O)N[C@@H](CC(N)=O)C(=O)N[C@H](C(=O)N[C@@H](C)C(=O)N1CCC[C@H]1C(=O)N[C@@H](CCCNC(=N)N)C(=O)N[C@H](C(=O)N[C@@H](CCCCN)C(=O)N[C@H](C(=O)NCC(=O)N1CCC[C@H]1C(=O)N[C@@H](CCC(N)=O)C(=O)NCC(=O)N1C[C@H](O)C[C@H]1C(N)=O)C(C)C)[C@@H](C)O)C(C)C)[C@@H](C)O [compound 292] (H-GCRTGTCTVQ[Cit]LAHQIYQFTDKDKDNVAPRTKVGPQG[Hyp]-NH2; disulfide 2-7; N-terminus assumed) | 19.700 | – | > 5 |
